In experiment [1] the target is T1, purified human BChE (Homo sapiens, UniProt P06276). In words: Reversible inhibition of BChE, Ellman method, enzyme-inhibitor dissociation constants. The class given is biochemical. The following applies: for SI, selective index Ki(AChE)/Ki(BChE): times higher preference for BChE over AChE; for Ki: ± standard error, ATCh substrate, 25 °C, pH 7.4. The protocol: (§1) As a source of BChE, a purified human BChE, and as AChE, a recombinant human AChE was used, both enzymes kindly provided by Dr. F. Nachon (Département de Toxicologie, Armed Forces Biomedical Research Institute, France). The concentrated stocks of enzymes (BChE: 5.6 µM; AChE: 0.20 µM) were diluted in a phosphate sodium buffer 0.1 M (pH 7.4) containing 0.1% BSA before starting the experiments.
T1 sequence (P06276 29-602): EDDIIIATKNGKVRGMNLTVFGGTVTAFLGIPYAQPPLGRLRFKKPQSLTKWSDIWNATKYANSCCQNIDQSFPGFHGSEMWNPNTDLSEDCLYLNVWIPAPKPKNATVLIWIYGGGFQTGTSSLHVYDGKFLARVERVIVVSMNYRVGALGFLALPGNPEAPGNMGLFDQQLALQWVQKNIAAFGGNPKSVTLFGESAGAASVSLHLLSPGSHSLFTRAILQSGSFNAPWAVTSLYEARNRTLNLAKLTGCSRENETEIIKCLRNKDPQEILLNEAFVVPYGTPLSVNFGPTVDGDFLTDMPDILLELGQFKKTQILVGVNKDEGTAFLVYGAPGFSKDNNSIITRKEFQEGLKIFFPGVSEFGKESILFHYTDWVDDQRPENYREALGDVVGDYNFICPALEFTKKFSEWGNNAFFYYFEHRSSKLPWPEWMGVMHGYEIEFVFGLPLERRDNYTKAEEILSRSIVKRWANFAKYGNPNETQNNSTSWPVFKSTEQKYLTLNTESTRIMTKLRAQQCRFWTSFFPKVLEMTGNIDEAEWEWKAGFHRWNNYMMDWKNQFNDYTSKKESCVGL
(§2) Enzyme activities were measured spectrophotometrically by the Ellman method at […] using 0.30 mM DTNB as thiol reagent, ATCh as substrate and water in 0.1 M phosphate buffer, pH 7.4. For the inhibition measurements, the reaction mixture contained tested compounds instead of water. […] Measurements were done at 25 °C on a Tecan Infinite M200Pro plate reader (Austria). A detailed description of measurement protocol was described previously.
(§3) The reversible inhibition of BChE and AChE by tested compounds was measured by determining the decrease of enzyme activity towards ATCh in their presence. The activities of the enzymes were measured at different substrate concentrations ([S]; 0.050–0.50 mM) in the absence (v0) and presence (vi) of the given tested compounds concentration ([I]; 0.050–200 µM, depending on the compound) selected to inhibit the enzymes for 20–80%. At least three concentrations of inhibitors for each substrate concentration were used in at least three experiments. The apparent dissociation inhibition constant (Ki,app) was calculated applying the Hunter-Downs equation and linear regression analysis (1):(1) Ki,app=vi/v0−vi⋅I=KI+KI/KS⋅S where y-intercept determines the enzyme-inhibitor dissociation constants (K(I)), while x-intercept determines the enzyme-substrate dissociation constant, K(S). The determination of kinetic constants was carried out using the GraphPadPrism 6.0 program (GraphPad Software, San Diego, CA, USA).
A general note: Ellman's reagent forms a yellow product with free thiols.

In experiment [2] the target is recombinant human AChE (Homo sapiens, UniProt P22303). In words: Reversible inhibition of AChE, Ellman method, enzyme-inhibitor dissociation constants. To be noted: ± standard error; ATCh substrate, 25 °C, pH 7.4. The class given is biochemical. As for the experimental part:
as §1, §2, §3

In experiment [3] the target is T1, purified human BChE. The following applies: earlier determined; cited from earlier work.

Sequence of recombinant human AChE (P22303 32-614): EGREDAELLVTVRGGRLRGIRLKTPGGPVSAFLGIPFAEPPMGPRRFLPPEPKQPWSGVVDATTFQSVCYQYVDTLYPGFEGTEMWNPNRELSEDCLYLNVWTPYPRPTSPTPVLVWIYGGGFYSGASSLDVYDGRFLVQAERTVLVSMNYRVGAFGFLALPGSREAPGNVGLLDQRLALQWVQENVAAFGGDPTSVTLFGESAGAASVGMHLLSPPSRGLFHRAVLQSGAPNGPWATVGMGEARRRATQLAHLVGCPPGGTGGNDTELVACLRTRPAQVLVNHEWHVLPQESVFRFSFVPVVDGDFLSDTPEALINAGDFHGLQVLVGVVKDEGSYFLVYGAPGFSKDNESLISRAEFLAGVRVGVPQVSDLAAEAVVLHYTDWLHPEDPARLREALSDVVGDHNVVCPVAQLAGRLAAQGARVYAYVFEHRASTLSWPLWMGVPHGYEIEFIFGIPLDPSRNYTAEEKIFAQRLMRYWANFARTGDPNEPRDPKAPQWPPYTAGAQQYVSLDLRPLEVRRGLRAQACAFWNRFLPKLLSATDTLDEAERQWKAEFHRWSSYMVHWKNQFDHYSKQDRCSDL

Regarding `C=CC1C[N+]2(Cc3cccc(F)c3)CCC1C[C@@H]2[C@@H](O)c1ccnc2ccccc12` (stereo partly shown) [CN 3F], in experiment [1], the “SI, selective index Ki(AChE)/Ki(BChE)” value is 2.1 and the Ki (as a rule, a measure of affinity in units of concentration, obtained from inhibition or displacement) worked out at 6.1 ± 0.3 µM. Besides, the Ki in experiment [2] worked out at 13 ± 0.4 µM.
With `C=CC1C[N+]2(Cc3cccc(OC(F)(F)F)c3)CCC1C[C@@H]2[C@@H](O)c1ccnc2ccccc12` (stereo partly shown) [CN 3OCF3, N-(3-trifluoromethoxybenzyl)cinchoninium bromide], in experiment [1], the “SI, selective index Ki(AChE)/Ki(BChE)” value came to 8.7 and the Ki worked out at 4.7 ± 0.2 µM. Besides, the Ki in experiment [2] was 41 ± 2 µM.
For the compound `C=CC1C[N+]2(Cc3ccc(C(F)(F)F)cc3)CCC1C[C@@H]2[C@@H](O)c1ccnc2ccccc12` (stereo partly shown) [CN 4CF3], in experiment [1], the “SI, selective index Ki(AChE)/Ki(BChE)” value was determined as 5.2 and the Ki is 6 ± 0.3 µM. In experiment [2], the inhibitory constant (Ki) worked out at 31 ± 1 µM.
For the compound `C=CC1C[N+]2(Cc3ccc(F)cc3)CCC1C[C@@H]2[C@@H](O)c1ccnc2ccccc12` (stereo partly shown) [CN 4F, N-(para-fluorobenzyl)cinchoninium bromide], in experiment [1], the “SI, selective index Ki(AChE)/Ki(BChE)” value worked out at 1.5. For the same compound, the figures for the Ki in experiment [1] and in experiment [2] were 2.6 ± 0.1 µM and 3.9 ± 0.2 µM, respectively.
Consider `C=CC1C[N+]2(Cc3ccc(OC(F)(F)F)cc3)CCC1C[C@@H]2[C@@H](O)c1ccnc2ccccc12` (stereo partly shown) [CN 4OCF3], for which, in experiment [1], the “SI, selective index Ki(AChE)/Ki(BChE)” value came to 2.4 and the Ki came out at 7.8 ± 0.3 µM. Moreover, the inhibition constant Ki in experiment [2] came out at 19 ± 2 µM.
`C=CC1C[N+]2(Cc3ccccc3)CCC1C[C@@H]2[C@@H](O)c1ccnc2ccccc12` (stereo partly shown) [CN Bzl]: in experiment [1], the “SI, selective index Ki(AChE)/Ki(BChE)” value is 42 and the affinity corresponds to a Ki of 2.9 ± 0.3 µM. Besides, the Ki in experiment [2] came out at 121 ± 12 µM.
On to `CCC1C[N+]2(Cc3cccc(C(F)(F)F)c3)CCC1C[C@H]2[C@H](O)c1ccnc2ccccc12` (stereo partly shown) [DHCD 3CF3, N-(3-trifluoromethylbenzyl)-10,11-dihydrocinchonidinium bromide], for which, in experiment [1], the “SI, selective index Ki(AChE)/Ki(BChE)” value worked out at 18 and affinity was put at a Ki of 1.4 ± 0.1 µM. Moreover, the Ki in experiment [2] is 25 ± 1 µM.
Consider `CCC1C[N+]2(Cc3cccc(F)c3)CCC1C[C@H]2[C@H](O)c1ccnc2ccccc12` (stereo partly shown) [DHCD 3F], for which, in experiment [1], the “SI, selective index Ki(AChE)/Ki(BChE)” value came to 84 and the affinity corresponds to a Ki of 0.3 ± 0.02 µM. Moreover, in experiment [2], the Ki is 27 ± 2 µM.
As to `CCC1C[N+]2(Cc3cccc(OC(F)(F)F)c3)CCC1C[C@H]2[C@H](O)c1ccnc2ccccc12` (stereo partly shown) [DHCD 3OCF3, N-(3-trifluoromethoxybenzyl)-10,11-dihydrocinchonidinium bromide], in experiment [1], the “SI, selective index Ki(AChE)/Ki(BChE)” value was 5 and affinity was put at a Ki of 6.8 ± 0.3 µM. For the same compound, in experiment [2], the Ki is 36 ± 1 µM.
The like results for `CCC1C[N+]2(Cc3ccc(C(F)(F)F)cc3)CCC1C[C@H]2[C@H](O)c1ccnc2ccccc12` (stereo partly shown) [DHCD 4CF3] were, in that order, 5, 3.2 ± 0.2 µM and 15 ± 1 µM.
As to `CCC1C[N+]2(Cc3ccc(F)cc3)CCC1C[C@H]2[C@H](O)c1ccnc2ccccc12` (stereo partly shown) [DHCD 4F, N-(4-fluorobenzyl)-10,11-dihydrocinchonidinium bromide], in experiment [1], the “SI, selective index Ki(AChE)/Ki(BChE)” value turned out to be 8 and the affinity corresponds to a Ki of 4.3 ± 0.2 µM. Also, the Ki in experiment [2] is 31 ± 1 µM.
As to `CCC1C[N+]2(Cc3ccc(OC(F)(F)F)cc3)CCC1C[C@H]2[C@H](O)c1ccnc2ccccc12` (stereo partly shown) [DHCD 4OCF3, N-(4-trifluoromethoxybenzyl)-10,11-dihydrocinchonidinium bromide], in experiment [1], the “SI, selective index Ki(AChE)/Ki(BChE)” value is recorded as 3 and affinity was put at a Ki of 5.9 ± 0.2 µM. Besides, the inhibition constant Ki in experiment [2] is 17 ± 1 µM.
With `CCC1C[N+]2(Cc3ccccc3)CCC1C[C@H]2[C@H](O)c1ccnc2ccccc12` (stereo partly shown) [DHCD Bzl], in experiment [1], the “SI, selective index Ki(AChE)/Ki(BChE)” value worked out at 12 and the affinity, expressed as Ki, was 0.4 ± 0.02 µM. Besides, the Ki in experiment [2] came to 4.8 ± 0.4 µM.
For the compound `CCC1CN2CCC1CC2C(O)c1ccnc2ccccc12` (stereo not shown) [DHCD, 10,11-dihydrocinchonidine], in experiment [1], the “SI, selective index Ki(AChE)/Ki(BChE)” value turned out to be 11 and the Ki was 19 ± 2 µM. Moreover, in experiment [2], the Ki was 206 ± 6 µM.
`CCC1C[N+]2(Cc3cccc(C(F)(F)F)c3)CCC1C[C@@H]2[C@@H](O)c1ccnc2ccccc12` (stereo partly shown) [DHCN 3CF3]: in experiment [1], the “SI, selective index Ki(AChE)/Ki(BChE)” value amounted to 34 and the Ki worked out at 1.2 ± 0.05 µM. Moreover, the Ki in experiment [2] amounted to 41 ± 2 µM.
With `CCC1C[N+]2(Cc3cccc(F)c3)CCC1C[C@@H]2[C@@H](O)c1ccnc2ccccc12` (stereo partly shown) [DHCN 3F, N-(3-fluorobenzyl)-10,11-dihydrocinchoninium bromide], in experiment [1], the “SI, selective index Ki(AChE)/Ki(BChE)” value amounted to 20 and the affinity corresponds to a Ki of 1.2 ± 0.1 µM. Further, the Ki in experiment [2] was found to be 20 ± 1 µM.
The like results for `CCC1C[N+]2(Cc3cccc(OC(F)(F)F)c3)CCC1C[C@@H]2[C@@H](O)c1ccnc2ccccc12` (stereo partly shown) [DHCN 3OCF3, N-(3-trifluoromethoxybenzyl)-10,11-dihydrocinchoninium bromide] were, in that order, 52, 1.3 ± 0.5 µM and 68 ± 1 µM.
Turning to `CCC1C[N+]2(Cc3ccc(C(F)(F)F)cc3)CCC1C[C@@H]2[C@@H](O)c1ccnc2ccccc12` (stereo partly shown) [DHCN 4CF3], in experiment [1], the “SI, selective index Ki(AChE)/Ki(BChE)” value worked out at 9 and the Ki was determined as 1.6 ± 0.1 µM. Further, the Ki in experiment [2] came to 18 ± 1 µM.
The like results for `CCC1C[N+]2(Cc3ccc(F)cc3)CCC1C[C@@H]2[C@@H](O)c1ccnc2ccccc12` (stereo partly shown) [DHCN 4F, N-(4-fluorobenzyl)-10,11-dihydrocinchoninium bromide] were, in that order, 40, 1.6 ± 0.1 µM and 64 ± 2 µM.
The like results for `CCC1C[N+]2(Cc3ccc(OC(F)(F)F)cc3)CCC1C[C@@H]2[C@@H](O)c1ccnc2ccccc12` (stereo partly shown) [DHCN 4OCF3, N-(4-trifluoromethoxybenzyl)-10,11-dihydrocinchoninium bromide] were, in that order, 10, 2.2 ± 0.1 µM and 22 ± 1 µM.
The like results for `CCC1C[N+]2(Cc3ccccc3)CCC1C[C@@H]2[C@@H](O)c1ccnc2ccccc12` (stereo partly shown) [DHCN Bzl] were, in that order, 23, 0.9 ± 0.04 µM and 21 ± 1 µM.
With `C=CC1C[N+]2(Cc3ccc(Br)cc3)CCC1CC2C(O)c1ccnc2ccccc12` (stereo not shown) [N-para-bromobenzyl CD derivative], the “selectivity to BChE over AChE (times)” value in experiment [3] was 510.

The record behind these values is PMC9610298, “Synthesis, Biological Evaluation and Machine Learning Prediction Model for Fluorinated Cinchona Alkaloid-Based Derivatives as Cholinesterase Inhibitors” (Pharmaceuticals, 2022).
